Reference: patent publication US7514251B2, “O-methyltransferases of tetrahydrobenzylisoquinoline alkaloid biosynthesis in Papaver somniferum” (priority 2003, dated 2009)
Like-named read-outs stand apart in the source and are kept apart here. Marks after values point to notes of the source that are not given here.

Assays:
Type in all cases: biochemical
[1] = target: T1, PSOMT2 ((R,S)-norcoclaurine 6-O-methyltransferase) (Papaver somniferum, UniProt Q6WUC1); test: HPLC-MS identification of enzymic products of PSOMT2; details: HPLC-MS of enzymic product
T1 construct: The full-length cDNA generated by RT-PCR was ligated into pFastBac HTa; His6 (N); made in house; host or cells: Spodoptera frugiperda Sf9 (baculovirus, pFastBac HTa)
T1 sequence (Q6WUC1 1-346): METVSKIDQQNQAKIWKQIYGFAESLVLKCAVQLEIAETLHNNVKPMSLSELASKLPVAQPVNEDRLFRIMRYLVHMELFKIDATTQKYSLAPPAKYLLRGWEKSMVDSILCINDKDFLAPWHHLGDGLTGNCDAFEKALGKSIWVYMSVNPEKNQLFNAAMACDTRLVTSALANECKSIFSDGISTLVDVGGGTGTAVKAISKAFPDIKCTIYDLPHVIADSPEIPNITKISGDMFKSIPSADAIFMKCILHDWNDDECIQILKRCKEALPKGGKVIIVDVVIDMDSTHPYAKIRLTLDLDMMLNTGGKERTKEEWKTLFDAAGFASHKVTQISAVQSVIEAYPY
Description: (§1) The identity of the enzymic reaction products was ascertained by HPLC-MS using a Finnigan MAT TSQ 7000 (electrospray voltage 4.5 kV, capillary temperature 220° C., carrier gas N2) coupled to a Micro-tech Ultra-Plus Micro-LC equipped with an Ultrasep RP18 column; 5 μm; 1×10 mm), Solvent system (A) 99.8% (v/v) H2O, 0.2% HOAc (B) 99.8% CH3CN (v/v), 0.2% HOAc; gradient: 0-15 min 10-90% B, 15-25 min 90% B; flow 70 μl min^−1). The collision-induced dissociation (CID; collision energy, −25 eV; collision gas, argon; collision pressure, 1.8×10^−3 Torr) mass spectra for the tetrahydrobenzylisoquinoline alkaloids were recorded.
(§2) Structure Elucidation of Enzymic Products—Initial enzyme activity measurements were carried out using a radioassay. Many of the substrates tested contained more than one site of potential methylation. […] Tetrahydrobenzylisoquinolines readily cleave at low ionization energies into the corresponding isoquinoline- and benzyl ions. This enables identification of methylation at either moiety. Each alkaloidal substrate was monitored for purity by HLPC-MS and the fragmentation pattern was determined. Enzymic product fragmentation patterns were then compared to those of substrate. All substrates were methylated by either PSOMT1 or PSOMT2 on the isoquinoline moiety. For example, (R)- or (S)-reticuline ([M+H]^+ m/z 330) has the major fragment ions m/z 192 (isoquinoline) and m/z 137 (benzyl). The methylation of (R)- or (S)-reticuline by PSOMT1 results in a product of [M+H]^+ m/z 344 (methylated (R)- or (S)-reticuline) with fragment ions at m/z 206 (isoquinoline+CH2) and m/z 137 (unmodified benzyl). Likewise, (R,S)-norcoclaurine ([M+H]^+ m/z 272) has the major fragment ions m/z 161 (isoquinoline) and m/z 107 (benzyl). The methylation of (R,S)-norcoclaurine by PSOMT2 results in a product of [M+H]^+ m/z 286 (methylated (R,S)-norcoclaurine) with fragment ions at m/z 175 (isoquinoline+CH2) and m/z 107 (unmodified benzyl).

[2] = target: T2, PSOMT1 ((R,S)-reticuline 7-O-methyltransferase) (Papaver somniferum, UniProt Q6WUC2); details: for Substrate specificity, relative activity of PSOMT1: 100% activity = 1.5 pmoles/sec/mg total protein, radioassay; for Vmax Substrate / kcat Substrate / pH optimum of methylation / ratio kcat/Km / Km / temperature optimum: PSOMT1; for methylated by PSOMT1 (radioassay, in words): one of forty substrates tested
T2 construct: The full-length cDNA generated by RT-PCR was ligated into pFastBac HTa; His6 (N); made in house; host or cells: Spodoptera frugiperda Sf9 (baculovirus, pFastBac HTa)
Excerpt: (§3) Heterologous Expression and Enzyme Purification—The full-length cDNA generated by RT-PCR was ligated into pFastBac HTa that had been digested with restriction endonucleases BamHI and NotI. The recombinant plasmid was transposed into baculovirus DNA in the Escherichia coli strain DH10BAC (Life Technologies) and then transfected into Spodoptera frugiperda Sf9 cells according to the manufacturer's instructions. The insect cells were propagated and the recombinant virus was amplified according to (16,17). INSECT-XPRESS serum-free medium (Bio Whittaker) was used in the enzyme expression experiments.
(§4) After infection of 20 ml suspension grown insect cells had proceded for 3-4 days at 28° C. and 130 rpm, the cells were removed by centrifugation under sterile conditions at 900× g for 5 min at 4° C. All subsequent steps were performed at 4° C. The pellet was discarded and to the medium was added 0.73 g NaCl, 2.5 ml glycerol and 50 μl […]-mercaptoethanol. The pH was adjusted to 7.0 with 1.0 M NaOH. The His-tagged O-methyltransferase was then purified by affinity chromatography using a cobalt resin (Talon, Clontech) according to the manufacturer's instructions.
(§5) Enzyme assay and product identification: The O-methylation reactions catalysed by the two O-methyltransferases were assayed at least two times in duplicate according to Rüffer et al. (1983a; 1983b) as follows. Substrate (25 nmol), [methyl-3H]-AdoMet (20,000 dpm, 0.4 fmol), AdoMet (10 nmol) Tris/HC1 buffer pH 8.0 (10 μmol), ascorbate (5 μmol) and 5-10 μg of enzyme were incubated in a total volume of 150 μl at 35° C. for 5-60 min. The enzymic reaction was terminated by addition of 200 μl ethylacetate. The organic phase ([…]) was added to 3 ml high flash point liquid scintillation cocktail (Packard) and the radioactivity quantified with a Beckman LS6000TA liquid scintillation counter.
(§6) General Methods—Total RNA was isolated and RNA gels were run and blotted as described previously (20). Genomic DNA was isolated and DNA gels were run and blotted according to (21). cDNA clones were labeled by PCR labeling with [[…]-^32P]dATP. Hybridized RNA on RNA gel blots and DNA on DNA gel blots were visualized with a STORM phosphor imager (Molecular Dynamics). The entire nucleotide sequence on both DNA strands of the full-length clone was determined by dideoxy cycle sequencing using internal DNA sequences for the design of deoxyoligonucleotides as sequencing primers. Saturation curves and double reciprocal plots were constructed with the Fig. P program Version 2.7 (Biosoft, Cambridge, UK). The influence of pH on enzyme activity was monitored in sodium citrate (pH 4-6), sodium phosphate (pH 6-7.0) and Tris-HCl (pH 7.0-9), glycine/NaOH (pH 9-10.5) buffered solutions.

[3] = target: T1, PSOMT2 ((R,S)-norcoclaurine 6-O-methyltransferase); test: Radioassay of recombinant PSOMT2 with [methyl-3H]-AdoMet (substrate specificity, kinetics, pH and temperature optima); details: for Substrate specificity, relative activity of PSOMT2: 100% activity = 2.0 pmoles/sec/mg total protein, radioassay; for Vmax Substrate / kcat Substrate / pH optimum of methyl transfer / Km / kcat/Km ratio relative to that obtained for (R,S)-norcoclaurine: PSOMT2; for methylated by PSOMT2 (radioassay, in words): one of forty substrates tested
Excerpt: as §3, §4, §5, §6

[4] = target: T2, PSOMT1 ((R,S)-reticuline 7-O-methyltransferase); test: HPLC-MS identification of enzymic products of PSOMT1; details: for position of O-methylation by PSOMT1: HPLC-MS of enzymic product
Description: as §1, §2

[5] = co-substrate AdoMet with the named substrate, read-out: Km AdoMet

T2 sequence (Q6WUC2 whole entry): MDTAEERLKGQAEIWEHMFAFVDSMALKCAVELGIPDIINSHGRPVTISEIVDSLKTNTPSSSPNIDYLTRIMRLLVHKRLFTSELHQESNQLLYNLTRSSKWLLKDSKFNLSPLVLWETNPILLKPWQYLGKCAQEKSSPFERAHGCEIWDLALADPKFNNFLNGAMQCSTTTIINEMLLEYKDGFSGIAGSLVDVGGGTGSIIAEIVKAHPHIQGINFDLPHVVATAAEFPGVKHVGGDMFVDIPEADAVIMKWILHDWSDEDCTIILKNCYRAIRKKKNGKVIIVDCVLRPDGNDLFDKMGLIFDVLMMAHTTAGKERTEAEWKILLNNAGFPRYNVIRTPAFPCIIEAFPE

SMILES | position of O-methylation by PSOMT2 [1] | Substrate specificity, relative activity of PSOMT1 [2] | Vmax Substrate [2] [pmol/s] | kcat Substrate [2] [s⁻¹] | pH optimum of methylation [2] | ratio kcat/Km [2] [M⁻¹ s⁻¹] | Km [2, 5] [µM] | Km ([2]; read-out: Km Substrate) [µM] | methylated by PSOMT1 (radioassay, in words) [2] | Substrate specificity, relative activity of PSOMT2 [3] [%] | Vmax Substrate [3] [pmol/s] | kcat Substrate [3] [s⁻¹] | pH optimum of methyl transfer [3] | Km [3, 5] [µM] | Km ([3]; read-out: Km Substrate) [µM] | methylated by PSOMT2 (radioassay, in words) [3] | position of O-methylation by PSOMT1 [4] | share of product that is double methylated 7,4′-O-dimethylorientaline (laudanosine) and monomethylated 4′-O-methylorientaline ([4]; PSOMT1, main product 7-O-methylorientaline) | kcat/Km ratio relative to that obtained for (R,S)-norcoclaurine [3] [%] | temperature optimum [2] [°C]
COc1cc(CC2c3cc(OC)c(O)cc3CCN2C)ccc1O (racemic) [(R,S)-Isoorientaline] | at C-6 | 46% | 1 | 0.02 | 7.5-9.0 | 1440 | 260 | 17 | methylates | 47 | 2 | 0.03 | 7.5 | 280 | 29 | methylating | O-methylated by PSOMT1 at C-6 |  |  | 
COc1cc(C[C@@H]2c3cc(O)c(OC)cc3CCN2C)ccc1O (racemic) [(R,S)-Orientaline] |  | 48% |  |  |  |  |  |  | methylates | 0 |  |  |  |  |  |  | O-methylated at C-7 | Approximately 1% |  | 
COc1ccc(C[C@H]2NCCc3cc(O)c(OC)cc32)cc1O [(R)-Norprotosinomenine] | at C-6 | 0% |  |  |  |  |  |  |  | 26 | 1 | 0.02 | 7.5 | 200 | 5 | methylating |  |  | 55 | 
COc1ccc(C[C@@H]2c3cc(OC)c(O)cc3CCN2C)cc1O [(R)-Protosinomenine] |  | 52% | 2 | 0.03 | 9.0 | 1670 | 320 | 16 | methylates | 0 |  |  |  |  |  |  | O-methylated by PSOMT1 at C-6 |  |  | 39
COc1ccc(C[C@@H]2c3cc(O)c(OC)cc3CCN2C)cc1O [(R)-Reticuline] |  | 100^a % | 4 | 0.07 | 8.0 | 4200 | 310 | 17 | methylates | 0 |  |  |  |  |  |  | O-methylated at C-7 |  |  | 37
COc1ccc(C[C@@H]2NCCc3cc(O)c(OC)cc32)cc1O [(S)-Norprotosinomenine] | at C-6 | 0% |  |  |  |  |  |  |  | 26 | 1 | 0.02 | 7.5 | 260 | 5 | methylating |  |  | 55 | 
COc1ccc(C[C@H]2c3cc(O)c(OC)cc3CCN2C)cc1O [(S)-Reticuline] |  | 100^a % | 4 | 0.07 | 8.0 | 4500 | 360 | 16 | methylates | 0 |  |  |  |  |  |  | O-methylated at C-7 |  |  | 37
